Assay results taken from US10821177B2, “Induction of differential stress resistance and uses thereof” (University of Southern California, priority 2007, dated 2020).

Assays:
LID mice = assay: Multiple treatments with doxorubicin in LID mice; type: in vivo, mouse; conditions: doxorubicin 20 mg/kg then 28 mg/kg 22 days later
Procedure: FIG. 22. Resistance to multiple treatments with doxorubicin. Doxorubicin was intravenously administered at 20 mg/kg on Day 0 and 28 mg/kg on Day 22 (n=5). The toxicity, evaluated by (A) percent survival and (B) daily weight measurements, are shown. p-value was calculated by log rank test (p<0.05).

A/J mice = assay: High-dose doxorubicin toxicity in A/J mice with or without 48-hour STS; type: in vivo, mouse
Procedure: FIG. 20. A/J mice, weighing 18-20 g, were starved for 48 hours (STS), and followed by a single intravenous injection of high dose doxorubicin (16 mg/kg). The toxicity, evaluated by (A) percent survival and (B) daily weight measurements, are shown.

COc1cccc2c1C(=O)c1c(O)c3c(c(O)c1C2=O)C[C@@](O)(C(=O)CO)C[C@@H]3O[C@H]1C[C@H](N)[C@H](O)[C@H](C)O1 [doxorubicin]
survival (LID mice; LID mice): All LID mice survived | mice that died (LID mice; control mice): 75% | survival (A/J mice; 16 mg/Kg doxorubicin i.v. after 48-hour STS (n=5)): protected all mice | lethality (A/J mice; 16 mg/Kg doxorubicin i.v., mice not pre-starved): killed all the mice
